# Results from patent US20230391781A1, “MALT1 MODULATORS AND USES THEREOF” (Rheos Medicines, Inc., priority 2020, published 2023).
# Where a name gives a salt, the structure may show the parent alone.
# Columns and labels:
# [1] = target: full length MALT1 (Homo sapiens (Human), UniProt Q9UDY8); test: MALT1 Biochemical Assay; conditions: 15 nM enzyme, 30 μM peptide substrate Ac-Leu-Arg-Ser-Arg-Rh110-dPro, 30 min pre-incubation, 60 min reaction; mean value if tested more than once
# Protocol: Inhibitor potency was evaluated by measuring enzymatic activity of full length MALT1 at varying concentrations of compound. The enzymatic assay consists of a single substrate reaction that monitors the release of a fluorescent dye upon cleavage of the peptide substrate. […] The assay buffer consists of 50 mM Hepes, pH 7.5, 0.8 M sodium citrate, 1 mM DTT, 0.004% tween-20, and 0.005% bovine serum albumin (BSA). […] The reaction was quenched after 60 minutes with the addition of iodoacetate at a final concentration of 10 mM. Total fluorescence was measured using an Envision (PerkinElmer) with fluorescence excitation at 485 nm and emission at […].
# For potency determination, 1 μL of serially diluted compound (in 100% DMSO) was pre-incubated with 40 μL of enzyme for 30 minutes. The reaction was initiated with the addition of 10 μL of peptide substrate. The relative fluorescence units were transformed to percent inhibition by using 0% and 100% inhibition controls as reference. […] IC50 values were calculated by fitting the concentration-response curves to a four-parameter logistic equation in GraphPad Prism.
# [2] = tested on: IL-2 in Jurkat (ATCC, clone E6.1) cells stimulated with anti-CD3/28/2; test: Jurkat IL-2 Assay; assay type: cell-based; conditions: Homo sapiens; IL-2 inhibition, Jurkat cells, 30 min compound then anti-CD3/28/2 stimulation for 24 hours; mean value if tested more than once; read-out: IC50
# Protocol: Inhibition was determined in a cell-based assay using Jurkat (ATCC, clone E6.1), an immortalized T-cell line, exposed to a dose response of compound and assessed for viability, and Il-2 inhibition by ELISA. Cells were cultured in RPMI/10% FBS (Invitrogen 11875093, Atlanta Biologicals S12450H), maintained below 3E6/mL and only used in assays while below passage 25. Compounds were stamped by ECHO onto 384w plates (PerkinElmer Culturplate, 6007680). The cells were plated in fresh media on top of compound and incubated for 30 minutes before stimulation with soluble anti-CD3/28/2 (Stemcell, 10970) for 24 hours. Supernatant was collected and assessed for Il-2 (MSD, 384w, L21SA-1). To assess viability of cells treated with compound, cells were lysed with CTG reagent (Promega, G7570), and measured by luminometer. […] IC50s calculated using 4-parameter fit in GraphPad Prism.
# In this table, “A” indicates IC50 of less than 0.1 μM; “B” indicates IC50 from 0.1 μM up to 1 μM; and “C” indicates IC50 of greater than 1 μM. “N/A” indicates not tested. For a compound that was tested in more than one experiment, the result shown represents the mean value.
# Chain of full length MALT1 (Q9UDY8 whole entry): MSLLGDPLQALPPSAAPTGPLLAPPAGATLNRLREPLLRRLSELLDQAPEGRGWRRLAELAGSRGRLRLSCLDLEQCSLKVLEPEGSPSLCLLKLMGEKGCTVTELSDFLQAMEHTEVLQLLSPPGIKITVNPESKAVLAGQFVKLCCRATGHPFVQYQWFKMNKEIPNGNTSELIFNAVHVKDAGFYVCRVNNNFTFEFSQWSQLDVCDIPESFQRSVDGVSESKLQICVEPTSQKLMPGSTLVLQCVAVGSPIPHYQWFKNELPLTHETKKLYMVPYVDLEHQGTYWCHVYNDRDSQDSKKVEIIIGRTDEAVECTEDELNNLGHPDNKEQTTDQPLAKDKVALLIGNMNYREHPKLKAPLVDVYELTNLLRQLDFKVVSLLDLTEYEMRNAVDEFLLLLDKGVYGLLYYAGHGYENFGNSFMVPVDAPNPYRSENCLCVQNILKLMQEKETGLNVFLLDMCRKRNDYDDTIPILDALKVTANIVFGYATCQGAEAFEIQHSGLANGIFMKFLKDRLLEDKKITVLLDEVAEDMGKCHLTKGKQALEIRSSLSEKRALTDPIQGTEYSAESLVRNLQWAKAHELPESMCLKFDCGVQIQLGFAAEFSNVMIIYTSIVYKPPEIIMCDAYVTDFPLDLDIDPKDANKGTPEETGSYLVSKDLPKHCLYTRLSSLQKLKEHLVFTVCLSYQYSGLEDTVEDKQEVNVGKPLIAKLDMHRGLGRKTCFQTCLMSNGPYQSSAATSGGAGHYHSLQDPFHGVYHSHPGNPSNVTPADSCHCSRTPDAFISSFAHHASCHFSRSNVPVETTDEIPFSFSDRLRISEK
IC50 [1],IC50 [2],Compound
100 to 1000 nM,> 1000 nM,"CO[C@@H](C)c1c(Nc2ccc([C@H](N(C)C(=O)[C@H]3C[C@H](C(=O)O)C3)C(F)(F)F)cc2)cnc2nc(Cl)nn12 [Compound 7.3, (1S,3r)-3-(((S)-1-(4-((2-chloro-7-((S)-1-methoxyethyl)-[1,2,4]triazolo[1,5-a]pyrimidin-6-yl)amino)phenyl)-2,2,2-trifluoroethyl)(methyl)carbamoyl)cyclobutane-1-carboxylic acid]"
< 100 nM,100 to 1000 nM,"CO[C@@H](C)c1c(Nc2ccc([C@H](N(C)C(=O)[C@H]3CC[C@H](O)CC3)C(F)(F)F)cc2)cnc2nc(Cl)nn12 [Compound 6.1, (1r,4S)—N—((S)-1-(4-((2-chloro-7-((S)-1-methoxyethyl)-[1,2,4]triazolo[1,5-a]pyrimidin-6-yl)amino)phenyl)-2,2,2-trifluoroethyl)-4-hydroxy-N-methylcyclohexane-1-carboxamide]"
100 to 1000 nM,> 1000 nM,"CNC(=O)N1CCCC(C(=O)N(C)[C@@H](c2ccc(Nc3cnc4nc(Cl)nn4c3[C@H](C)OC)cc2)C(F)(F)F)C1 (stereo partly drawn) [Compound 3.6, N3-[(1S)-1-[4-({2-chloro-7-[(1S)-1-methoxyethyl]-[1,2,4]triazolo[1,5-a]pyrimidin-6-yl}amino)phenyl]-2,2,2-trifluoroethyl]-N1,N3-dimethylpiperidine 1,3-dicarboxamide]"
100 to 1000 nM,> 1000 nM,"CO[C@@H](C)c1c(Nc2ccc([C@H](N(C)C(=O)C3CCN(C)C3)C(F)(F)F)cc2)cnc2nc(Cl)nn12 (stereo partly drawn) [Compound 5.3, N-[(1S)-1-[4-({2-chloro-7-[(1S)-1-methoxyethyl]-[1,2,4]triazolo[1,5-a]pyrimidin-6-yl}amino)phenyl]-2,2,2-trifluoroethyl]-N,1-dimethylpyrrolidine-3-carboxamide hydrochloride]"
< 100 nM,100 to 1000 nM,"CO[C@@H](C)c1c(Nc2ccc([C@H](N(C)C(=O)C3CCC(CN)CC3)C(F)(F)F)cc2)cnc2nc(Cl)nn12 (stereo partly drawn) [Compound 2.4, 4-(aminomethyl)-N-[(1S)-1-[4-({2-chloro-7-[(1S)-1-methoxyethyl]-[1,2,4]triazolo[1,5-a]pyrimidin-6-yl}amino)phenyl]-2,2,2-trifluoroethyl]-N-methylcyclohexane-1-carboxamide; Formic Acid]"
100 to 1000 nM,100 to 1000 nM,"CO[C@H](C)c1c(Nc2ccc([C@H](N(C)C(=O)C3CCS(=O)(=O)CC3)C(F)(F)F)cc2)cnc2nc(Cl)nn12 [Compound 10.1, N—((S)-1-(4-((2-chloro-7-((R)-1-methoxyethyl)-[1,2,4]triazolo[1,5-a]pyrimidin-6-yl)amino)phenyl)-2,2,2-trifluoroethyl)-N-methyltetrahydro-2H-thiopyran-4-carboxamide 1,1-dioxide]"
< 100 nM,100 to 1000 nM,"CO[C@@H](C)c1c(Nc2ccc([C@H](N(C)C(=O)C3CCN(C(=O)C4CC4)C3)C(F)(F)F)cc2)cnc2nc(Cl)nn12 (stereo partly drawn) [Compound 4.3, N-[(1S)-1-[4-({2-chloro-7-[(1S)-1-methoxyethyl]-[1,2,4]triazolo[1,5-a]pyrimidin-6-yl}amino)phenyl]-2,2,2-trifluoroethyl]-1-cyclopropanecarbonyl-N-methylpyrrolidine-3-carboxamide]"
100 to 1000 nM,> 1000 nM,"CO[C@@H](C)c1c(Nc2ccc([C@H](N(C)C(=O)C3CCN(C(C)=O)C3)C(F)(F)F)cc2)cnc2nc(Cl)nn12 (stereo partly drawn) [Compound 3.8, 1-acetyl-N-[(1S)-1-[4-({2-chloro-7-[(1S)-1-methoxyethyl]-[1,2,4]triazolo[1,5-a]pyrimidin-6-yl}amino)phenyl]-2,2,2-trifluoroethyl]-N-methylpyrrolidine-3-carboxamide]"

# More lines, now with the values behind:
Compound,IC50 [1],IC50 [2]
"CO[C@@H](C)c1c(Nc2ccc(C(C)N(C)C(=O)C3CCCC3)cc2)cnc2nc(Cl)nn12 (stereo partly drawn) [Compound 1.22, N-{1-[4-({2-chloro-7-[(1S)-1-methoxyethyl]-[1,2,4]triazolo[1,5-a]pyrimidin-6-yl}amino)phenyl]ethyl}-N-methylcyclopentanecarboxamide]",> 1000 nM,> 1000 nM
"COC(=O)[C@H]1CC[C@H](C(=O)N(C)[C@@H](c2ccc(Nc3cnc4nc(Cl)nn4c3[C@H](C)OC)cc2)C(F)(F)F)CC1 [Compound 1.4, methyl(1r,4r)-4-{[(1S)-1-[4-({2-chloro-7-[(1S)-1-methoxyethyl]-[1,2,4]triazolo[1,5-a]pyrimidin-6-yl}amino)phenyl]-2,2,2-trifluoroethyl] (methyl)carbamoyl}cyclohexane-1-carboxylate]",100 to 1000 nM,100 to 1000 nM
"COC(=O)NC1CCC(C(=O)N(C)[C@@H](c2ccc(Nc3cnc4nc(Cl)nn4c3[C@H](C)OC)cc2)C(F)(F)F)CC1 (stereo partly drawn) [Compound 1.16, methyl (4-(((S)-1-(4-((2-chloro-7-((S)-1-methoxyethyl)-[1,2,4]triazolo[1,5-a]pyrimidin-6-yl)amino)phenyl)-2,2,2-trifluoroethyl)(methyl)carbamoyl)cyclohexyl)carbamate]",< 100 nM,100 to 1000 nM
"CO[C@@H](C)c1c(Nc2ccc([C@H](N(C)C(=O)C3CC3)C(F)(F)F)c(C)c2)cnc2nc(Cl)nn12 [Compound 1.29, N-[(1S)-1-[4-({2-chloro-7-[(1S)-1-methoxyethyl]-[1,2,4]triazolo[1,5-a]pyrimidin-6-yl}amino)-2-methylphenyl]-2,2,2-trifluoroethyl]-N-methylcyclopropanecarboxamide]",> 1000 nM,> 1000 nM
"CO[C@@H](C)c1c(Nc2ccc([C@H](N(C)C(=O)C3CCC3)C(F)(F)F)cc2C)cnc2nc(Cl)nn12 [Compound 1.31, N-[(1S)-1-[4-({2-chloro-7-[(1S)-1-methoxyethyl]-[1,2,4]triazolo[1,5-a]pyrimidin-6-yl}amino)-3-methylphenyl]-2,2,2-trifluoroethyl]-N-methylcyclobutanecarboxamide]",> 1000 nM,> 1000 nM
"CO[C@@H](C)c1c(Nc2ccc([C@H](N(C)C(=O)C3CCS(=O)(=O)CC3)C(F)(F)F)cc2C)cnc2nc(Cl)nn12 [Compound 1.33, N-[(1S)-1-[4-({2-chloro-7-[(1S)-1-methoxyethyl]-[1,2,4]triazolo[1,5-a]pyrimidin-6-yl}amino)-3-methylphenyl]-2,2,2-trifluoroethyl]-N-methyl-1,1-dioxo-1λ^6-thiane-4-carboxamide]",100 to 1000 nM,> 1000 nM
"CO[C@@H](C)c1c(Nc2ccc([C@H](N(C)C(=O)C3CC3)C(F)(F)F)cc2C)cnc2nc(Cl)nn12 [Compound 1.32, N-[(1S)-1-[4-({2-chloro-7-[(1S)-1-methoxyethyl]-[1,2,4]triazolo[1,5-a]pyrimidin-6-yl}amino)-3-methylphenyl]-2,2,2-trifluoroethyl]-N-methylcyclopropanecarboxamide]",100 to 1000 nM,> 1000 nM
"CO[C@@H](C)c1c(Nc2ccc([C@H](N(C)C(=O)C3CCC3)C(F)(F)F)c(C)c2)cnc2nc(Cl)nn12 [Compound 1.28, N-[(1S)-1-[4-({2-chloro-7-[(1S)-1-methoxyethyl]-[1,2,4]triazolo[1,5-a]pyrimidin-6-yl}amino)-2-methylphenyl]-2,2,2-trifluoroethyl]-N-methylcyclobutanecarboxamide]",> 1000 nM,> 1000 nM
"CO[C@H](C)c1c(Nc2ccc([C@@H](N(C)C(=O)C3CCS(=O)(=O)CC3)C(F)(F)F)cc2)cnc2nc(Cl)nn12 [Compound 1.27, N-[(1R)-1-[4-({2-chloro-7-[(1R)-1-methoxyethyl]-[1,2,4]triazolo[1,5-a]pyrimidin-6-yl}amino)phenyl]-2,2,2-trifluoroethyl]-N-methyl-1,1-dioxo-1λ^6-thiane-4-carboxamide]",> 1000 nM,> 1000 nM
"CO[C@@H](C)c1c(Nc2ccc([C@H](N(C)C(=O)C3CCC4(CC3)OCCO4)C(F)(F)F)cc2)cnc2nc(Cl)nn12 [Compound 1.7, N-[(1S)-1-[4-({2-chloro-7-[(1S)-1-methoxyethyl]-[1,2,4]triazolo[1,5-a]pyrimidin-6-yl}amino)phenyl]-2,2,2-trifluoroethyl]-N-methyl-1,4-dioxaspiro[4.5]decane-8-carboxamide]",< 100 nM,100 to 1000 nM
CO[C@@H](C)c1c(Nc2ccc([C@H](N(C)C(=O)C3CCOC3)C(F)(F)F)cc2)cnc2nc(Cl)nn12 (some centres unmarked) [Compound 1.6],< 100 nM,100 to 1000 nM
